Test results taken from PubChem BioAssay AID1963435 (Molecular Pharmacology Branch, DTP, NCI, 2024).
Values belong to the compound of their own block, whether it stands above or below them.

System: PANC-1 complex spheroid growth, percent test/control
Assay: Anticancer human tumor PANC-1 cell line growth inhibition [Asc];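 note: spheroids exposed to agents for 7 days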;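 for viability, T/C: percent viability relative to DMSO vehicle wells taken as 100%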
Conditions: for IC50: curve of first compound; for viability, T/C: stronger effect = lower value
How it was run: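 Complex solid-tumor spheroids incorporating human endothelial and mesenchymal stem cells received single agents or combinations over half-log dilution ranges anchored to clinical Cmax.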

[1] = second compound 0.0316 µM, first compound 0.00316 µM
[2] = second compound 0.0316 µM, first compound 0.01 µM
[3] = second compound 0.0316 µM, first compound 0.0316 µM
[4] = second compound 0.0316 µM, first compound 0.1 µM
[5] = second compound 0.0316 µM, first compound 0.316 µM
[6] = second compound 0.0316 µM, first compound 1 µM
[7] = second compound 0.1 µM, first compound 0.00316 µM
[8] = second compound 0.1 µM, first compound 0.01 µM
[9] = second compound 0.1 µM, first compound 0.0316 µM
[10] = second compound 0.1 µM, first compound 0.1 µM
[11] = second compound 0.1 µM, first compound 0.316 µM
[12] = second compound 0.1 µM, first compound 1 µM
[13] = second compound 0.316 µM, first compound 0.00316 µM
[14] = second compound 0.316 µM, first compound 0.01 µM
[15] = second compound 0.316 µM, first compound 0.0316 µM
[16] = second compound 0.316 µM, first compound 0.1 µM
[17] = second compound 0.316 µM, first compound 0.316 µM
[18] = second compound 0.316 µM, first compound 1 µM
[19] = second compound 1 µM, first compound 0.00316 µM
[20] = second compound 1 µM, first compound 0.01 µM
[21] = second compound 1 µM, first compound 0.0316 µM
[22] = second compound 1 µM, first compound 0.1 µM
[23] = second compound 1 µM, first compound 0.316 µM
[24] = second compound 1 µM, first compound 1 µM
[25] = second compound 3.16 µM, first compound 0.0316 µM
[26] = second compound 3.16 µM, first compound 0.1 µM
[27] = second compound 3.16 µM, first compound 0.316 µM
[28] = second compound 3.16 µM, first compound 1 µM
[29] = second compound 10 µM, first compound 0.0316 µM
[30] = second compound 10 µM, first compound 0.1 µM
[31] = second compound 10 µM, first compound 0.316 µM
[32] = second compound 10 µM, first compound 1 µM

IC50 (second compound 0.00316 µM): 289 nM
IC50 (second compound 0.01 µM): 225 nM
IC50 (second compound 0.0316 µM): 199 nM
IC50 (second compound 0.1 µM): 157 nM
IC50 (second compound 0.316 µM): 159 nM
IC50 (second compound 1 µM): 191 nM
SMILES: COc1c(OCCCN2CCOCC2)ccc2c3n(c(=NC(=O)c4cnc(N)nc4)nc12)CCN3 + CNC(C)C(=O)NC1CN(S(=O)(=O)c2cccc(S(=O)(=O)N3CCC4CCC(C(=O)NC(c5ccccc5)c5ccccc5)N4C(=O)C(NC(=O)C(C)NC)C3)c2)CCC2CCC(C(=O)NC(c3ccccc3)c3ccccc3)N2C1=O
viability, T/C (second compound 0.00316 µM, first compound 0.00316 µM): 107%
viability, T/C (second compound 0.00316 µM, first compound 0.01 µM): 92.4%
viability, T/C (second compound 0.00316 µM, first compound 0.0316 µM): 87.6%
viability, T/C (second compound 0.00316 µM, first compound 0.1 µM): 74.8%
viability, T/C (second compound 0.00316 µM, first compound 0.316 µM): 45.6%
viability, T/C (second compound 0.00316 µM, first compound 1 µM): 18.7%
viability, T/C (second compound 0.01 µM, first compound 0.00316 µM): 96.1%
viability, T/C (second compound 0.01 µM, first compound 0.01 µM): 95.5%
viability, T/C (second compound 0.01 µM, first compound 0.0316 µM): 94.2%
viability, T/C (second compound 0.01 µM, first compound 0.1 µM): 65.7%
viability, T/C (second compound 0.01 µM, first compound 0.316 µM): 44%
viability, T/C (second compound 0.01 µM, first compound 1 µM): 15.6%
viability, T/C [1]: 95.2%
viability, T/C [2]: 99.1%
viability, T/C [3]: 89.9%
viability, T/C [4]: 62.8%
viability, T/C [5]: 41.3%
viability, T/C [6]: 13.2%
viability, T/C [7]: 103%
viability, T/C [8]: 90.7%
viability, T/C [9]: 82.1%
viability, T/C [10]: 56.6%
viability, T/C [11]: 36.8%
viability, T/C [12]: 12.3%
viability, T/C [13]: 98.7%
viability, T/C [14]: 91.7%
viability, T/C [15]: 85.2%
viability, T/C [16]: 56.9%
viability, T/C [17]: 36.8%
viability, T/C [18]: 14.6%
viability, T/C [19]: 86.9%
viability, T/C [20]: 96.9%
viability, T/C [21]: 83.1%
viability, T/C [22]: 66.4%
viability, T/C [23]: 37.4%
viability, T/C [24]: 15.5%

IC50 (second compound 0.0316 µM): 5830 nM
IC50 (second compound 0.1 µM): 5830 nM
IC50 (second compound 0.316 µM): 5430 nM
IC50 (second compound 1 µM): 5240 nM
IC50 (second compound 3.16 µM): 5000 nM
IC50 (second compound 10 µM): 5880 nM
SMILES: C=C(F)C(=O)N1CCN(c2nc(OCC3CCCN3C)nc3c2CCN(c2cccc4cccc(Cl)c24)C3)CC1CC#N (stereo unspecified) + Cc1c(S(C)(=O)=O)c(-c2cc(F)cc(N3CCN(c4ccc(NS(=O)(=O)c5ccc(NC(CCN6CCC(C(=O)OCCCP(=O)(O)O)CC6)CSc6ccccc6)c(S(=O)(=O)C(F)(F)F)c5)cc4)CC3)c2)c(-c2ccc(Cl)cc2)n1C(C)C
viability, T/C [3]: 94.6%
viability, T/C [4]: 95.8%
viability, T/C [5]: 106%
viability, T/C [6]: 100%
viability, T/C (second compound 0.0316 µM, first compound 3.16 µM): 92.4%
viability, T/C (second compound 0.0316 µM, first compound 10 µM): 12.5%
viability, T/C [9]: 97.4%
viability, T/C [10]: 87.6%
viability, T/C [11]: 113%
viability, T/C [12]: 103%
viability, T/C (second compound 0.1 µM, first compound 3.16 µM): 98%
viability, T/C (second compound 0.1 µM, first compound 10 µM): 7.53%
viability, T/C [15]: 101%
viability, T/C [16]: 101%
viability, T/C [17]: 109%
viability, T/C [18]: 103%
viability, T/C (second compound 0.316 µM, first compound 3.16 µM): 91.3%
viability, T/C (second compound 0.316 µM, first compound 10 µM): 3.26%
viability, T/C [21]: 97.8%
viability, T/C [22]: 98.2%
viability, T/C [23]: 117%
viability, T/C [24]: 107%
viability, T/C (second compound 1 µM, first compound 3.16 µM): 88.1%
viability, T/C (second compound 1 µM, first compound 10 µM): 1.2%
viability, T/C [25]: 104%
viability, T/C [26]: 113%
viability, T/C [27]: 114%
viability, T/C [28]: 114%
viability, T/C (second compound 3.16 µM, first compound 3.16 µM): 80%
viability, T/C (second compound 3.16 µM, first compound 10 µM): 4.62%
viability, T/C [29]: 181%
viability, T/C [30]: 180%
viability, T/C [31]: 189%
viability, T/C [32]: 194%
viability, T/C (second compound 10 µM, first compound 3.16 µM): 108%
viability, T/C (second compound 10 µM, first compound 10 µM): 0.69%

IC50 (second compound 0.0316 µM): 536 nM
IC50 (second compound 0.1 µM): 420 nM
IC50 (second compound 0.316 µM): 314 nM
IC50 (second compound 1 µM): 304 nM
IC50 (second compound 3.16 µM): 282 nM
IC50 (second compound 10 µM): 264 nM
SMILES: COc1c(OCCCN2CCOCC2)ccc2c3n(c(=NC(=O)c4cnc(N)nc4)nc12)CCN3 + Cc1c(S(C)(=O)=O)c(-c2cc(F)cc(N3CCN(c4ccc(NS(=O)(=O)c5ccc(NC(CCN6CCC(C(=O)OCCCP(=O)(O)O)CC6)CSc6ccccc6)c(S(=O)(=O)C(F)(F)F)c5)cc4)CC3)c2)c(-c2ccc(Cl)cc2)n1C(C)C
viability, T/C [1]: 103%
viability, T/C [2]: 98.5%
viability, T/C [3]: 95.7%
viability, T/C [4]: 73.7%
viability, T/C [5]: 69.4%
viability, T/C [6]: 32.6%
viability, T/C [7]: 98%
viability, T/C [8]: 105%
viability, T/C [9]: 94.7%
viability, T/C [10]: 72.8%
viability, T/C [11]: 60.2%
viability, T/C [12]: 28.5%
viability, T/C [13]: 107%
viability, T/C [14]: 106%
viability, T/C [15]: 91.1%
viability, T/C [16]: 58.2%
viability, T/C [17]: 59%
viability, T/C [18]: 25.7%
viability, T/C [19]: 104%
viability, T/C [20]: 97.8%
viability, T/C [21]: 99.8%
viability, T/C [22]: 67.4%
viability, T/C [23]: 52.9%
viability, T/C [24]: 24.1%
viability, T/C (second compound 3.16 µM, first compound 0.00316 µM): 122%
viability, T/C (second compound 3.16 µM, first compound 0.01 µM): 106%
viability, T/C [25]: 86.8%
viability, T/C [26]: 65.8%
viability, T/C [27]: 53.8%
viability, T/C [28]: 23.9%
viability, T/C (second compound 10 µM, first compound 0.00316 µM): 171%
viability, T/C (second compound 10 µM, first compound 0.01 µM): 198%
viability, T/C [29]: 131%
viability, T/C [30]: 78.1%
viability, T/C [31]: 52.5%
viability, T/C [32]: 31.7%
